# Measured values as given in patent US20220408703A1, “IMAGING INDIVIDUAL HIPPOCAMPAL SEIZURES AND THE LONG-TERM IMPACT OF REPEATED SEIZURES” (The Board of Trustees of the Leland Stanford Junior …, priority 2019, published 2022).
# Tested on: optogenetically induced ventral hippocampal seizures in rats
# Details: same animals awake and under dexmedetomidine sedation
# Description: (A,B) Ventral hippocampal LFP recordings from the same animal and seizures induced when awake and under sedation. Red arrow indicates large amplitude spike onset, and insets i-iii) are magnified components of those seizures. Blue bar indicates time of optogenetic stimulation (40 Hz with 7.5 ms pulses) (C) Another set of electrophysiological recordings from a different animal in the awake and sedated state. […] Each line represents a single animal.
# The afterdischarge threshold was first evaluated for each individual animal by gradually increasing stimulation intensity in a step-wise manner to drive electrographic seizures in the absence of behavioral seizures as assessed using the Racine scale. Starting with a 10 s train of 40 Hz stimulation with a pulse width of 7.5 ms at 1 mW, the power was increased 1 mW at a time with an interstimulus interval (ISI) of 1 min up to a maximum of 20 mW. If no afterdischarges were observed, the duration was increased by 2.5 s and power was reset to 1 mW.
# Simultaneous LFP-ofMRI Data Acquisition to assess ventral hippocampal connectivity. To assess ventral hippocampal connectivity, CAMKIIa cells in ventral hippocampus were stimulated at 10 Hz using optogenetic stimulation and assessed using simultaneous LFP-fMRI. Data acquisition was performed using the 7T horizontal-bore system (Bruker BioSpec 70/30) at the Stanford Center for Innovation in In-Vivo Imaging (SCi3). […] A single bolus of Feraheme (15 mg/kg, i.v.) was used for cerebral blood volume (CBV) weighted imaging for the enhanced contrast to noise ratio (Mandeville et al., 1998) and microvascular sensitivity (Zhao et al., 2006) that this technique offers in comparison to BOLD fMRI. fMRI acquisition was carried out approximately 15 min post contrast agent injection using a 4-shot segmented spiral readout with the following acquisition parameters: TR=0.75 ms, TE=9 ms, flip angle=30, field-of-view=32×32 mm, matrix=70×70, slice thickness=0.6 mm, number of slices=30, number of repetitions=130, number of dummy scans=4. […]
smiles,measurement,setting,value
Cc1cccc([C@H](C)c2cnc[nH]2)c1C [dexmedetomidine],"proportion of stimulations resulting in afterdischarges, awake vs sedated","40 Hz, 7.5 ms pulses, FIG. 10D",No differences
same,"large amplitude spike onset, awake vs sedated",FIG. 10E,No differences
same,"afterdischarge duration, sedated vs awake",FIG. 10F,did not result in shorter afterdischarges
